Tests used:
S. aureus Newman = assay: Bliss interaction score (quartile over a dose matrix) (fitness difference); higher = more antagonism (negative = synergy)
Summary of the method: (§1)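 Fitness was defined as normalised growth: OD595 at the start of stationary phase divided by the plate's robust no-drug mean and capped at 1. Single-drug fitness was inferred from combination measurements. The Bliss score is observed fitness minus the product of the single-drug values, summarised by quartiles across technical, biological and donor/recipient replicates.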

S. pneumoniae D39V [1] = assay: as above
Summary of the method: as §1

S. aureus DSM 20231 = assay: as above
Summary of the method: as §1

B. subtilis 168 = assay: as above
Summary of the method: as §1

S. pneumoniae D39V [2] = assay: fitness (endpoint OD595 vs no drug) (fraction); higher = more growth
Summary of the method: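 In 384-well plates at 37 °C, cultures began at OD595 0.01 in 30 µl, with 55 µl used for S. pneumoniae. OD595 readings every 30 min for 14 h were corrected by the first reading. Fitness divides the stationary-phase transition optical density by the robust mean of no-drug control wells. The result is capped at 1.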
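Wherever Bliss interaction score (quartile over a dose matrix) is given: first quartile when negative (synergy) and third quartile when positive (antagonism).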
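Wherever fitness (endpoint OD595 vs no drug) is given: OD595 on entry to stationary phase over no-drug wells; at most 1.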

CCN(CC)CCOC(=O)c1ccc(N)cc1 [Procaine] + CO[C@H]1/C=C/O[C@@]2(C)Oc3c(C)c(O)c4c(O)c(c(/C=N/N5CCN(C)CC5)c(O)c4c3C2=O)NC(=O)/C(C)=C\C=C\[C@H](C)[C@H](O)[C@@H](C)[C@@H](O)[C@@H](C)[C@H](OC(C)=O)[C@@H]1C [Rifampicin]
Settings | Bliss interaction score
B. subtilis 168 | -0.0578
S. aureus DSM 20231 | -0.054
S. aureus Newman | -0.0206
S. pneumoniae D39V [1] | 0.0704

S. pneumoniae D39V [2], partner 0.025 µg/mL, one replicate
Settings | fitness
first compound 85.5 µg/mL | 0.903
first compound 171 µg/mL | 0.875
first compound 342 µg/mL | 0.919

fitness, S. pneumoniae D39V [2]
Settings | first compound 85.5 µg/mL | first compound 171 µg/mL | first compound 342 µg/mL
partner 0.05 µg/mL | 0.927 | 0.909 | 0.984
partner 0.2 µg/mL | 0.102 | 0.0616 | 0.132

CN(C)C(=O)C(CCN1CCC(O)(c2ccc(Cl)cc2)CC1)(c1ccccc1)c1ccccc1 [Loperamide] + C/C(=C\C(=O)OCCCCCCCCC(=O)O)C[C@@H]1OC[C@H](C[C@@H]2O[C@H]2[C@@H](C)[C@H](C)O)[C@@H](O)[C@H]1O [Pseudomonic acid]
Settings | Bliss interaction score
B. subtilis 168 | -0.0528
S. aureus DSM 20231 | 0.0202
S. aureus Newman | 0.0342
S. pneumoniae D39V [1] | 0.121

fitness, S. pneumoniae D39V [2]
Settings | first compound 17.14 µg/mL | first compound 20 µg/mL | first compound 34.28 µg/mL | first compound 40 µg/mL | first compound 80 µg/mL
partner 0.03 µg/mL | ≥ 1 | 0.9 | 0.99 | 0.961 | 0.845
partner 0.06 µg/mL | 0.859 | 0.726 | 0.808 | 0.766 | 0.747
partner 0.12 µg/mL | 0.686 | 0.544 | 0.632 | 0.569 | 0.509

S. pneumoniae D39V [2], first compound 68.57 µg/mL, one replicate
Settings | fitness
partner 0.03 µg/mL | ≥ 1
partner 0.06 µg/mL | 0.996
partner 0.12 µg/mL | 0.663

CN(C)C(=O)C(CCN1CCC(O)(c2ccc(Cl)cc2)CC1)(c1ccccc1)c1ccccc1 [Loperamide] + Cn1nnc(-c2ccc(-c3ccc(N4C[C@H](CO)OC4=O)cc3F)cn2)n1 [Tedizolid]
Settings | Bliss interaction score
B. subtilis 168 | 0.06
S. aureus DSM 20231 | 0.198
S. aureus Newman | 0.102
S. pneumoniae D39V [1] | 0.243

fitness, S. pneumoniae D39V [2]
Settings | first compound 17.14 µg/mL | first compound 20 µg/mL | first compound 34.28 µg/mL | first compound 40 µg/mL | first compound 80 µg/mL
partner 0.03125 µg/mL | – | 0.997 | – | ≥ 1 | ≥ 1
partner 0.0625 µg/mL | – | ≥ 1 | – | ≥ 1 | ≥ 1
partner 0.125 µg/mL | 0.933 | 0.908 | 0.961 | 0.94 | 0.976
partner 0.5 µg/mL | 0.532 | – | 0.529 | – | –

S. pneumoniae D39V [2], first compound 68.57 µg/mL, one replicate
Settings | fitness
partner 0.125 µg/mL | 0.979
partner 0.25 µg/mL | 0.963
partner 0.5 µg/mL | 0.468

From the supplement of paper PMC10627819
